Assay results from ChEMBL document CHEMBL1629589, “Activity of the oral neuraminidase inhibitor A-322278 against the oseltamivir-resistant H274Y (A/H1N1) influenza virus mutant in mice” (2009).

Key:
Format in all cases: functional
Influenza A virus [1] = assay: Antiviral activity against recombinant Influenza A virus (A/WSN/1933(H1N1)) H274Y mutant infected in BALB/c mouse assessed as mortality rate at 10 mg/kg, po administered 4 hrs before infection for 5 days measured on day 5 (reference value: 100 %)
Influenza A virus [2] = assay: Antiviral activity against recombinant Influenza A virus (A/WSN/1933(H1N1)) H274Y mutant infected in BALB/c mouse assessed as lung viral titer at 1 mg/kg, po administered 4 hrs before infection for 5 days measured on day 4 (reference value: 1 x 10^6 +/- 0.3 x 10^6 PFU)
Influenza A virus [3] = assay: Antiviral activity against recombinant Influenza A virus (A/WSN/1933(H1N1)) H274Y mutant infected in BALB/c mouse assessed as reduction in body weight at 10 mg/kg, po administered 48 hrs postinfection for 5 days measured on day 5 (reference value: 22.2 %); design: scale not given: the % may be the effect or the level left
Influenza A virus [4] = assay: Antiviral activity against recombinant Influenza A virus (A/WSN/1933(H1N1)) H274Y mutant infected in BALB/c mouse assessed as reduction in body weight at 1 mg/kg, po administered 48 hrs postinfection for 5 days measured on day 5 (reference value: 22.2 %); design: scale not given: the % may be the effect or the level left
Influenza A virus [5] = assay: Antiviral activity against recombinant Influenza A virus (A/WSN/1933(H1N1)) H274Y mutant infected in BALB/c mouse assessed as mortality rate at 10 mg/kg, po administered 48 hrs postinfection for 5 days measured on day 5 (reference value: 100 %)
Influenza A virus [6] = assay: Antiviral activity against recombinant Influenza A virus (A/WSN/1933(H1N1)) H274Y mutant infected in BALB/c mouse assessed as reduction in body weight at 1 mg/kg, po administered 4 hrs before infection for 5 days measured on day 5 (reference value: 22.2 %); design: scale not given: the % may be the effect or the level left
Influenza A virus [7] = assay: Antiviral activity against recombinant Influenza A virus (A/WSN/1933(H1N1)) H274Y mutant infected in BALB/c mouse assessed as time to death at 1 mg/kg, po administered 4 hrs before infection on day 5 (reference value: 5.1 days)
Influenza A virus [8] = assay: Antiviral activity against recombinant Influenza A virus (A/WSN/1933(H1N1)) H274Y mutant infected in BALB/c mouse assessed as lung viral titer at 10 mg/kg, po administered 48 hrs postinfection for 5 days measured on day 4 (reference value: 1 x 10^6 +/- 0.3 x 10^6 PFU)
Influenza A virus [9] = assay: Antiviral activity against recombinant Influenza A virus (A/WSN/1933(H1N1)) H274Y mutant infected in BALB/c mouse assessed as reduction in body weight at 10 mg/kg, po administered 4 hrs before infection for 5 days measured on day 5 (reference value: 22.2 %); design: scale not given: the % may be the effect or the level left
Influenza A virus [10] = assay: Antiviral activity against recombinant Influenza A virus (A/WSN/1933(H1N1)) H274Y mutant infected in BALB/c mouse assessed as lung viral titer at 1 mg/kg, po administered 48 hrs postinfection for 5 days measured on day 4 (reference value: 1 x 10^6 +/- 0.3 x 10^6 PFU)
Influenza A virus [11] = assay: Antiviral activity against recombinant Influenza A virus (A/WSN/1933(H1N1)) H274Y mutant infected in BALB/c mouse assessed as mortality rate at 1 mg/kg, po administered 48 hrs postinfection for 5 days measured on day 5 (reference value: 100 %)
Influenza A virus [12] = assay: Antiviral activity against recombinant Influenza A virus (A/WSN/1933(H1N1)) H274Y mutant infected in BALB/c mouse assessed as time to death at 10 mg/kg, po administered 48 hrs postinfection for 5 days (reference value: 5.1 days)
Influenza A virus [13] = assay: Antiviral activity against recombinant Influenza A virus (A/WSN/1933(H1N1)) H274Y mutant infected in BALB/c mouse assessed as lung viral titer at 10 mg/kg, po administered 4 hrs before infection for 5 days measured on day 4 (reference value: 1 x 10^6 +/- 0.3 x 10^6 PFU)
Influenza A virus [14] = assay: Antiviral activity against recombinant Influenza A virus (A/WSN/1933(H1N1)) H274Y mutant infected in BALB/c mouse assessed as mortality rate at 1 mg/kg, po administered 4 hrs before infection for 5 days measured on day 5 (reference value: 100 %)
Influenza A virus [15] = assay: Antiviral activity against recombinant Influenza A virus (A/WSN/1933(H1N1)) H274Y mutant infected in BALB/c mouse assessed as time to death at 1 mg/kg, po administered 48 hrs postinfection for 5 days (reference value: 5.1 days)

Row | Structure (SMILES) | Activity (Influenza A virus [1]) [%] | PFU (Influenza A virus [2]) | Activity (Influenza A virus [3]) [%] | Activity (Influenza A virus [4]) [%] | Activity (Influenza A virus [5]) [%] | Activity (Influenza A virus [6]) [%] | Time (Influenza A virus [7]) [days] | PFU (Influenza A virus [8]) | Activity (Influenza A virus [9]) [%] | PFU (Influenza A virus [10]) | Activity (Influenza A virus [11]) [%] | Time (Influenza A virus [12]) [days] | PFU (Influenza A virus [13]) | Activity (Influenza A virus [14]) [%] | Time (Influenza A virus [15]) [days]
1 | C/C=C\[C@@H]1C[C@H](C(=O)OC(C)C)N[C@H]1[C@@H](NC(C)=O)[C@](C)(CCC)OC | 0 | 69000 | 15.6 | 19 | 25 | 10.8 | 5 | 130000 | 5 | 83000 | 75 | 5.4 | 35000 | 0 | 
2 | CCOC(=O)C1=C[C@@H](OC(CC)CC)[C@H](NC(C)=O)[C@@H](N)C1 [OSELTAMIVIR] |  | 190000 | 21.5 | 20.1 | 75 | 23.7 | 5.1 | 13000 |  | 230000 | 100 | 5.2 |  | 100 | 5
